Results published in US20250352615A1, “COMPOSITIONS AND METHODS FOR THE MODULATION OF PIEZO1 AND TRPV4” (Duke University, priority 2021, published 2025).

How the values were obtained:
pancreatic acini = test: Mitochondrial depolarization in pancreatic acini (TMRE); format: cell-based, mouse; settings: Yoda1 50 μM
Experimental: Live-cell mitochondrial depolarization was analyzed using the mitochondrial labeling dye, TMRE. Isolated acini were plated on a thin-layered, Matrigel-coated, glass-bottom culture plate with DMEM/F12 and 10% FBS media and placed in a CO2 incubator for 1 hr at 37° C. After 1 hr, the acini were incubated with TMRE (200 nM) in the bath buffer containing 140 mM NaCl, 4.7 mM KCl, 2.0 CaCl2, 1 mM MgCl2, 10 mM HEPES, and 10 mM glucose (pH adjusted to 7.4 with NaOH) for 30 minutes. The TMRE dye was washed and replaced with fresh bath buffer. The images were captured with a Zeiss Axio observer Z1 microscope with MetaMorph software (Molecular Devices) at intervals of 600 ms. TMRE was excited at 540-600 nm and emission collected at 585-675 nm. Carbonyl cyanide 4-(trifluoromethoxy) phenylhydrazone (FCCP), which uncouples the oxidative phosphorylation process and depolarizes mitochondria, was used as a positive control. A maximum of 2 mitochondrial puncta were taken per acinar cell.

Piezo1 [1] = target: T1, Piezo1 (Mus musculus, UniProt E2JF22); test: Calcium imaging of Piezo1-mediated [Ca2+]i in mouse PSCs; format: cell-based
T1 construct: endogenous in cells; host or cells: freshly isolated mouse pancreatic acini (WT = Piezo1 fl/fl on a C57BL/6J background)
T1 sequence (E2JF22 whole entry): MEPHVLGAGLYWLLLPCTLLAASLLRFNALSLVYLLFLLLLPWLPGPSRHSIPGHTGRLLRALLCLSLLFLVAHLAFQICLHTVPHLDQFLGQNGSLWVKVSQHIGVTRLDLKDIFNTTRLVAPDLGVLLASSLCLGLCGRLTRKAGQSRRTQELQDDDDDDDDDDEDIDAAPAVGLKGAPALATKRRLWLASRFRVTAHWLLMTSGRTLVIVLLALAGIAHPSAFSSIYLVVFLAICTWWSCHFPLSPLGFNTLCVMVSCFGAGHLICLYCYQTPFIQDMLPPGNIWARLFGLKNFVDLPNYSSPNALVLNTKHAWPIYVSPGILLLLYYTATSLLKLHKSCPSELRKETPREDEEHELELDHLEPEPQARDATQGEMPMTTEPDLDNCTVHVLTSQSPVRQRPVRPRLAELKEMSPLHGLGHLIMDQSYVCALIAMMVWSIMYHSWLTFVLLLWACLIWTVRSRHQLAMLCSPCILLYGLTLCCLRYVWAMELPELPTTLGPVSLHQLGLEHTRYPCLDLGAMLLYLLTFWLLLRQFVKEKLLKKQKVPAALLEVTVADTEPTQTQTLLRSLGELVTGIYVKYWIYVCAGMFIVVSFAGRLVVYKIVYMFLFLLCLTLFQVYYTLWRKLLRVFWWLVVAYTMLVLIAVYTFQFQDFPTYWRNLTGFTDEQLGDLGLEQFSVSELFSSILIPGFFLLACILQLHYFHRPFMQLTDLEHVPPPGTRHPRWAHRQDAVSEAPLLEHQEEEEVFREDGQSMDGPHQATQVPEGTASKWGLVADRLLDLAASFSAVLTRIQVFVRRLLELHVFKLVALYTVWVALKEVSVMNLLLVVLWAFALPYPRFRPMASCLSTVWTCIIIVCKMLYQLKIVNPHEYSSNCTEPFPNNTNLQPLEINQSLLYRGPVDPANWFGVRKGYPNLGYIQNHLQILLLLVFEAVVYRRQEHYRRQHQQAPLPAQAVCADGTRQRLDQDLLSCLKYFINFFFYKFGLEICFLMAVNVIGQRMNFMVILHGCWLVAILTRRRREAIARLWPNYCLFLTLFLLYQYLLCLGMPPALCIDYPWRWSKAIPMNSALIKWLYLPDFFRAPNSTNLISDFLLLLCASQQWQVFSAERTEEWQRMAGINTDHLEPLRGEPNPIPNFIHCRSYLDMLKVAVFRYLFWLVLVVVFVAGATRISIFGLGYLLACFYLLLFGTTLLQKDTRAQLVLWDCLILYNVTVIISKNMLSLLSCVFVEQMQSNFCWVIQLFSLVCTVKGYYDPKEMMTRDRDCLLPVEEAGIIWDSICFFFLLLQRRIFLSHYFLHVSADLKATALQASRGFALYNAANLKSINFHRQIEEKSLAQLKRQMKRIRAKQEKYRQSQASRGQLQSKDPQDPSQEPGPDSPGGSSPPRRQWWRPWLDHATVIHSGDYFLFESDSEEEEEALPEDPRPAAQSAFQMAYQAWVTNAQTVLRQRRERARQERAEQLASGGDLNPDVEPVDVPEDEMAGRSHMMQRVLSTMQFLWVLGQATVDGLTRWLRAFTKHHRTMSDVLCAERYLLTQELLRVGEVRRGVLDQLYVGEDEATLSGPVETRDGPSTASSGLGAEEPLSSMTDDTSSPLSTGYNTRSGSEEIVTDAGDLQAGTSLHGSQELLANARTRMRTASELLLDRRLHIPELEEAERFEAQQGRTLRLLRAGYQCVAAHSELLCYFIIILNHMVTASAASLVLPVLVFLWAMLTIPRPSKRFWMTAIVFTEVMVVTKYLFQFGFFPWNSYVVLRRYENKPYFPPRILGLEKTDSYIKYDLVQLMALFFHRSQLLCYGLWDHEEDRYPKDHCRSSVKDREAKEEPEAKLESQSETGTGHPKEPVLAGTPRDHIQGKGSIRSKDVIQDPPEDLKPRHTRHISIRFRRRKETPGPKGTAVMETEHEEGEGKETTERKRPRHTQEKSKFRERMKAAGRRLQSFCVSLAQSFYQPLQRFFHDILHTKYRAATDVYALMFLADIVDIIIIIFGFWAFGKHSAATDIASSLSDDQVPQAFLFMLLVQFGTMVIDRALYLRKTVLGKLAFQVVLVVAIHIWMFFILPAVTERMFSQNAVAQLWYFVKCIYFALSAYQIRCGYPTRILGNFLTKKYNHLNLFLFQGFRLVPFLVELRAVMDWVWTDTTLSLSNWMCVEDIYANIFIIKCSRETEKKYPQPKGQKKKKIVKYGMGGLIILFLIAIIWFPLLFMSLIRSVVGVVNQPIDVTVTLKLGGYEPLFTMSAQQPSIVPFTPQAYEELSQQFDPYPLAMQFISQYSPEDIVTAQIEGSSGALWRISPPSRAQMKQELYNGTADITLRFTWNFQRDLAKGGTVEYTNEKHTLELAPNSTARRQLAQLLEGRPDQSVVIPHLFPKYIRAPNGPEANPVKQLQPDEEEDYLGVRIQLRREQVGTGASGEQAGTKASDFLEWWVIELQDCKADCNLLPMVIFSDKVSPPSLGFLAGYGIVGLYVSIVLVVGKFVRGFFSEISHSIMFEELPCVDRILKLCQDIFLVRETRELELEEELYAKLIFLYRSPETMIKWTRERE
Experimental: Mouse and human PSCs were isolated using collagenase digestion. Modified Krebs Henseleit Buffer (KHB) solution (100 mL) was prepared as previously described by Romac et al., Nat. Commun. 9(1):1715 (2018). Pancreatic tissue was digested with 2 mg of collagenase NB 8 (SERVA, catalog 17456) dissolved in 10 mL of modified KHB solution containing 1 mg soybean trypsin inhibitor (SBTI 1-S; Millipore Sigma, catalog T9003) and 20 mg BSA (Thermo Fisher Scientific; BP1600-100). Digestion solution (5 mL) was used to inflate the pancreas. Pancreas with 5 mL of digestion solution was incubated in a shaking water bath for 10 minutes at 37° C. The solution was then discarded. The pancreas tissue was cut into small pieces and digested with fresh 5 mL digestion buffer. Tissue was incubated in a shaking water bath for 40 minutes at 37° C. The cells were then separated from tissue by pipetting up-down with a 10 mL pipette and passed sequentially through a 70 μm and a 40 μm cell strainer. The filtrate was centrifuged at 150×g for 3 minutes at room temperature. The cells were washed with 10 mL Leibovitz's media (Thermo Fisher Scientific, catalog 11415-064), passed through a 20 μm filter, and centrifuged at 80×g for 3 minutes at room temperature. The supernate was removed, and isolated stellate cells were plated on a thin-layered Matrigel-coated glass bottom culture plate (MatTek, P35G-0-14-C). Before plating the cells, Matrigel solution (Corning, catalog 354234) at a ratio of 1.5:100 DMEM/F12 (Thermo Fisher Scientific, catalog 11330-032) was poured onto the culture plate and incubated for 2 hr at 37° C. to form a thin layer of Matrigel coating. Matrigel mixture was removed, and the plate was washed with PBS before cells were plated. Cell culture media, DMEM/F12 with 5% FBS was used for mouse stellate cells. Fresh, human pancreatic tissue was digested with collagenase as described above with modifications. Collagenase (2.5 mg) in 10 mL of modified KHB solution was used for digestion. The digested tissues were filtered through a 100 μm cell strainer. The cells were cultured with DMEM/F12 with 10% FBS in a Matrigel-coated plate. After 24 hr, the cell media was replaced with fresh media to remove unattached and dead cells. After 2 days, cells were immunostained for GFAP and used for experiments. Perinuclear fat droplets were stained with BODIPY 493/503 (4,4-Difluoro-1,3,5,7,8-Pentamethyl-4-Bora-3a,4a-Diaza-s-Indacene; Invitrogen, catalog D3922) to confirm stellate cell quiescence. The cell viability following Yoda1 treatment was analyzed using the Live/Dead cell imaging kit (Thermo Fisher Scientific, catalog R37601). RNAs were isolated using the RiboPure Kit (Invitrogen, catalog AM1924) according to manufacturer's instructions.
Fluid shear stress and mechanical pushing applied to stellate cells were achieved as previously described by Wang et al., J. Clin. Invest. 126(12): 4527-4536 (2016). Parallel-plate fluid flow chambers (μ-Slide I 0.4 Luer, or μ-Slide I 0.2 Luer from Ibidi) were used for fluid shear stress experiments. The fluid shear stress (T) was calculated using the formula: τ=η×[…] φ for μ-Slide I 0.4 Luer and τ=η×330.4 φ for μ-Slide I 0.2 Luer, where r represents viscosity of the medium and φ represents flow rate (according to the manufacturer's instructions, Ibidi). Mechanical pushing was achieved by applying a blunt borosilicate glass pipette once to the cell membrane with a deflection of 2-3 μm for 1 second using a micromanipulator (World Precision Instruments).
Calcium 6-QF (Molecular Devices) dye was used for live-cell calcium imaging as described by Romac et al., Nat. Commun. 9(1):1715 (2018). Cells were imaged in HBSS buffer with 2 mM Ca^2+. Faintly and highly fluorescent loaded cells were excluded from analysis. […]

Piezo1 [2] = target: T1, Piezo1; test: Calcium imaging of Yoda1 (Piezo1)-mediated [Ca2+]i in pancreatic acini; format: cell-based; settings: pancreatic acini, bath calcium 2 mM, Yoda1 25 μM
Experimental: Mouse pancreatic acini were isolated using a standard collagenase digestion protocol. Isolated acini were plated on a thin-layered, Matrigel-coated, glass-bottom, culture plate (MatTek, P35G-0-14-C). Freshly isolated acini were used in each experiment.
Calcium imaging in pancreatic acini was performed as previously described. The chemicals used in calcium imaging experiments included the following: Yoda1 (Tocris; 5586), GsMTx4 (Abcam; ab141871), 5′,6′-EET (Santa Cruz Biotechnology; sc-221066), AA (Millipore Sigma; A3611), HC067047 (Tocris; 4100), GSK1016790A (Millipore Sigma; G0798), RN1734 (Tocris; 3746), AACOCF3 (Tocris; 1462), YM26734 (Tocris; 2522), GF109203X (Tocris; 0741), and CCK8 (Sigma-Aldrich).

[3] = test system: Yes-associated protein (YAP); test: YAP nuclear localization in mouse stellate cells (immunostaining); format: cell-based; settings: Yoda1 25 μM for 4 hr
Experimental: Murine stellate cells from wild type or Piezo1^GFAPKO mice were activated with 25 μM Yoda 1 for 4 hours before fixation. Immunostaining staining was performed as described in Swain et al. JCI Insight 7:e158288 (2022). Yap antibody was diluted at 1/100.

Clc1cccc(Cl)c1CSc1nnc(-c2cnccn2)s1 [Yoda1]
mitochondrial depolarization in Piezo1aci-KO cells (pancreatic acini): did not depolarize mitochondria | rate of mitochondrial depolarization compared with CCK (10 nM) (pancreatic acini): occurred at a higher rate than that induced with CCK | TMRE fluorescence intensity (mitochondrial depolarization) (pancreatic acini; WT acini): significantly decreased TMRE fluorescence intensity | time to mitochondrial depolarization after application (pancreatic acini; CCK 10 nM): ≤ 3 min | Yoda1-stimulated [Ca2+]i increase in Piezo1-deleted PSCs (Piezo1 [1]; Yoda1 25 μM, Piezo1GFAP-KO): absent in Piezo1-deleted PSCs | [Ca2+]i response to Yoda1 (Piezo1 [1]; mouse PSCs): dose-dependent increases in [Ca^2+]i elevation | [Ca2+]i response to Yoda1 (Piezo1 [2]): initial transient Ca^2+ rise, followed by sustained intracellular calcium elevation | YAP nuclear localization in stellate cells from Piezo1GFAP-KO mice [3]: No changes were observed | YAP nuclear localization ([3]; wild-type stellate cells, preliminary): increases YAP nuclear localization
